Source: patent US9341616B2, “Sweet taste receptor chimeric proteins and use thereof” (AJINOMOTO CO., INC., priority 2014, dated 2016)
Residues, ends and D or L forms follow the SMILES beside them.

What follows are compounds tested against h-mT1R2-481/T1R3mosaicB (UniProt Q8TE23+Q925D8, A537S/A558R/A564V/A568V/A570T/A588V/A645S/A649T/A658V/A698V/A702T/A782V/A793V/A807V/A88D/C582S/C678S/E530V/E534N/E542M/E548N/E725V/F525Y/F541I/F612A/F622V/F665L/F695L/F71L/G696N/G701T/G86K/H484Y/H528R/H728R/I152V/I481V/I486P/I490V/I510L/I518V/I595M/I617V/I643V/I645L/I692L/I695G/I706V/I740A/I803L/K504M/K555R/K565R/K626T/K714N/K818R/K827G/L151M/L521P/L560F/L571I/L578I/L610P/L631F/L636F/L639V/L684P/L688V/L68N/L702I/L72W/L734M/L735F/L800F/L823M/L825Q/M492I/M616G/M644L/M682V/M690V/M744T/M748V/M74L/N540G/N541S/N547G/N675D/N721H/P545F/P561R/P564S/P638T/P67S/P824S/Q123R/Q536L/Q546K/Q550E/Q555R/Q611L/Q676H/Q757R/Q795R/Q831P/R498S/R632Q/R667S/S112P/S124D/S501P/S547N/S550A/S576L/S595F/S610P/S628F/S635P/S637R/S663R/S670G/S679G/S681F/S703N/S717H/S727G/S784D/S804G/T109A/T529S/T542A/T549I/T609V/T629S/T642S/T663I/T694M/T705I/T706G/T716I/T813A/V120A/V508I/V512P/V557A/V573A/V584A/V585L/V613L/V617M/V673M/V687A/V691A/V694A/V718L/V718M/V723A/V729T/V738A/V741L/V774I/V791M/V805L/V812A/V821L/W599R/W676R/W824R/Y533F/Y615F/Y671F/Y680C/Y769S/Y783H/Y794L). Settings: Table 6; genes h-mT481/T1R3mB (h-mT1R2-481, T1R3mB); HEK293E cells.
h-mT1R2-481/T1R3mosaicB, sequence (Q8TE23 with tags, fused parts or gaps with the stated changes limits assumed): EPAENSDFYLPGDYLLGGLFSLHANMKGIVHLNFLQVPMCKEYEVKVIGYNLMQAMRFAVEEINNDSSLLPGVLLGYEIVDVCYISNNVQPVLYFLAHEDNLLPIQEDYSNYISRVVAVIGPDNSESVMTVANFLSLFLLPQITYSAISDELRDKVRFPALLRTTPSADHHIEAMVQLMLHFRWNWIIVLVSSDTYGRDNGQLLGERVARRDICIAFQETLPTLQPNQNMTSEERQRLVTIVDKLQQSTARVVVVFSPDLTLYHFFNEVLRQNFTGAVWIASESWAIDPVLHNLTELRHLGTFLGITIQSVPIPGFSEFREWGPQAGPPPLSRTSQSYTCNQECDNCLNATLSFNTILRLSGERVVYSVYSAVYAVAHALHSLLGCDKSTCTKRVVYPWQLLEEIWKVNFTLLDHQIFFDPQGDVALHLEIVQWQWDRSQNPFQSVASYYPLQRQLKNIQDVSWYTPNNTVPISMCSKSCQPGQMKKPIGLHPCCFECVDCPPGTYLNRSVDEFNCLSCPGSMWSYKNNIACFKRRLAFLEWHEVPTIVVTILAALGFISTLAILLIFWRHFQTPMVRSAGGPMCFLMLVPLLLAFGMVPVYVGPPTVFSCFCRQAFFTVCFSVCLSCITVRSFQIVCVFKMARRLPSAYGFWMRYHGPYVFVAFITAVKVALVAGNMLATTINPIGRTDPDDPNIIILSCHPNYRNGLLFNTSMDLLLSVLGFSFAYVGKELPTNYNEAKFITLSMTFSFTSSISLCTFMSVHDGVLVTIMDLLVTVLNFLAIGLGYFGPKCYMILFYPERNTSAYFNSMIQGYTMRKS
h-mT1R2-481/T1R3mosaicB, sequence (Q925D8 with tags, fused parts or gaps with the stated changes limits assumed): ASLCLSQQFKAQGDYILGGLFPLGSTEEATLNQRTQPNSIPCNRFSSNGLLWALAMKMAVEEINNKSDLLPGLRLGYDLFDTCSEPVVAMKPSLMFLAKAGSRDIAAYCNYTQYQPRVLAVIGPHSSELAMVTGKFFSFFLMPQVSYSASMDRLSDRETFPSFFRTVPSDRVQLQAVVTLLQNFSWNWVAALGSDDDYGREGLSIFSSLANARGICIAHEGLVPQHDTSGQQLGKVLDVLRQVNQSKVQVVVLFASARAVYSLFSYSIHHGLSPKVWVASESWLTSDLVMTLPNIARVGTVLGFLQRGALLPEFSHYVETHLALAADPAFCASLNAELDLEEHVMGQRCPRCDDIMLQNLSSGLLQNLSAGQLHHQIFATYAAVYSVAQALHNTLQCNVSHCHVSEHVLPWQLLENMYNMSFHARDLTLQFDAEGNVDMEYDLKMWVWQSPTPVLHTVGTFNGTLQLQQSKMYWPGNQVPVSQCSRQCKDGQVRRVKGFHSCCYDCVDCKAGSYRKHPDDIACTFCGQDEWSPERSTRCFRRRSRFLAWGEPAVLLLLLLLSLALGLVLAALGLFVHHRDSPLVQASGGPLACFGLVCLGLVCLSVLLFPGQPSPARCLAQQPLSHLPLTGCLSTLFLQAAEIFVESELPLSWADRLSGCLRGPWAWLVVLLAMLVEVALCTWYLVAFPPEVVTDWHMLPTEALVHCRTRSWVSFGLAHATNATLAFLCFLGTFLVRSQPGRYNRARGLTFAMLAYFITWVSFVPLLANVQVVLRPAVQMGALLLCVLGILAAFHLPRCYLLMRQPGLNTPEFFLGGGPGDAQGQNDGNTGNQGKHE

SMILES | S/N
OC[C@H]1O[C@H](O[C@]2(CCl)O[C@H](CCl)[C@@H](O)[C@@H]2O)[C@H](O)[C@@H](O)[C@H]1Cl [Sucralose, sucralose] | 6.6
CC1=CC(=O)NS(=O)(=O)O1 [Acesulfame K, acesulfame potassium] | 5.6
COC(=O)[C@H](Cc1ccccc1)NC(=O)[C@H](CC(=O)O)NCCCc1ccc(OC)c(O)c1 [Advantame, advantame] | 10.2
OC[C@H]1O[C@@](CO)(O[C@H]2O[C@H](CO)[C@@H](O)[C@H](O)[C@H]2O)[C@@H](O)[C@@H]1O [Sucrose, sucrose] | 4.0
COc1ccc(CCC(=O)c2c(O)cc(O[C@@H]3O[C@H](CO)[C@@H](O)[C@H](O)[C@H]3O[C@@H]3O[C@@H](C)[C@H](O)[C@@H](O)[C@H]3O)cc2O)cc1O [NHDC, neohesperidin dihydrochalcone] | 5.8
COC(=O)[C@H](Cc1ccccc1)NC(=O)[C@H](CC(=O)O)NCCC(C)(C)C [Neotame, neotame] | 7.7
C[C@H](NC(=Nc1ccc(C#N)cc1)NCC(=O)O)c1ccccc1 [SC-45647, [3-[(S)-1-phenylethyl]-2-(4-cyanophenyl)guanidino]acetic acid] | 7.7
O=C1NS(=O)(=O)c2ccccc21.[Na] [Saccharin Na, sodium saccharin] | 6.1
COC(=O)[C@H](Cc1ccccc1)NC(=O)[C@@H](N)CC(=O)O [Aspartame, aspartame] (HELM PEPTIDE1{D.F.[CO[*:1]]}$$$$V2.0) | 7.8
